The NIST ThermoML archive (doi:10.1016/j.fluid.2017.09.014)

Test: xn = mol fraction of the nth substance listed
Conditions: Vibrating tube method, x2 = 0.9503

O=S=O [sulfur dioxide] + O=C=O
Conditions	mass density [kg/m3]
322.49 K, 26001 kPa, Fluid (supercritical or subcritical phases)	875.4
322.49 K, 26517 kPa, Fluid (supercritical or subcritical phases)	878.8
322.49 K, 27508 kPa, Fluid (supercritical or subcritical phases)	886.3
322.49 K, 28018 kPa, Fluid (supercritical or subcritical phases)	889.5
322.49 K, 29025 kPa, Fluid (supercritical or subcritical phases)	896.4
322.49 K, 29507 kPa, Fluid (supercritical or subcritical phases)	899.6
322.5 K, 17499 kPa, Fluid (supercritical or subcritical phases)	793.5
322.5 K, 18503 kPa, Fluid (supercritical or subcritical phases)	806.6
322.5 K, 19491 kPa, Fluid (supercritical or subcritical phases)	818.5
322.5 K, 24497 kPa, Fluid (supercritical or subcritical phases)	864.4
322.5 K, 25003 kPa, Fluid (supercritical or subcritical phases)	867.7
322.51 K, 11504 kPa, Fluid (supercritical or subcritical phases)	649.9
322.51 K, 12003 kPa, Fluid (supercritical or subcritical phases)	672.3
322.51 K, 16502 kPa, Fluid (supercritical or subcritical phases)	779.1
322.51 K, 17005 kPa, Fluid (supercritical or subcritical phases)	786.2
322.52 K, 14000 kPa, Fluid (supercritical or subcritical phases)	731.9
322.52 K, 14504 kPa, Fluid (supercritical or subcritical phases)	742.9
322.52 K, 15012 kPa, Fluid (supercritical or subcritical phases)	753.2
322.52 K, 15501 kPa, Fluid (supercritical or subcritical phases)	761.8
322.52 K, 16003 kPa, Fluid (supercritical or subcritical phases)	770.9
322.53 K, 12505 kPa, Fluid (supercritical or subcritical phases)	691.1
322.53 K, 13501 kPa, Fluid (supercritical or subcritical phases)	720.4
322.54 K, 13000 kPa, Fluid (supercritical or subcritical phases)	706.7
352.93 K, 202 kPa, Gas	3
352.93 K, 6001 kPa, Gas	114.8
352.94 K, 1742 kPa, Gas	28.6
352.94 K, 2504 kPa, Gas	41.8
352.94 K, 4003 kPa, Gas	70.6
352.94 K, 4493 kPa, Gas	80.5
352.94 K, 6516 kPa, Gas	127.7
352.94 K, 7017 kPa, Gas	140.9
352.94 K, 7498 kPa, Fluid (supercritical or subcritical phases)	154.1
352.94 K, 8038 kPa, Fluid (supercritical or subcritical phases)	170.3
352.94 K, 9008 kPa, Fluid (supercritical or subcritical phases)	201.9
352.95 K, 306 kPa, Gas	4.6
352.95 K, 402 kPa, Gas	6
352.95 K, 511 kPa, Gas	7.6
352.95 K, 740 kPa, Gas	11.4
352.95 K, 1507 kPa, Gas	24.3
352.95 K, 2002 kPa, Gas	33
352.95 K, 2248 kPa, Gas	37
352.95 K, 2800 kPa, Gas	47.2
352.95 K, 3009 kPa, Gas	51
352.95 K, 4997 kPa, Gas	91.5
352.95 K, 5490 kPa, Gas	102.6
352.95 K, 9230 kPa, Fluid (supercritical or subcritical phases)	209.5
352.95 K, 12000 kPa, Fluid (supercritical or subcritical phases)	321.9
352.95 K, 12505 kPa, Fluid (supercritical or subcritical phases)	346.8
352.95 K, 14502 kPa, Fluid (supercritical or subcritical phases)	447.3
352.95 K, 15497 kPa, Fluid (supercritical or subcritical phases)	493.2
352.95 K, 16515 kPa, Fluid (supercritical or subcritical phases)	535.1
352.95 K, 17520 kPa, Fluid (supercritical or subcritical phases)	569.4
352.95 K, 19511 kPa, Fluid (supercritical or subcritical phases)	624.5
352.95 K, 21993 kPa, Fluid (supercritical or subcritical phases)	677.2
352.95 K, 22493 kPa, Fluid (supercritical or subcritical phases)	686.4
352.95 K, 23011 kPa, Fluid (supercritical or subcritical phases)	694.8
352.95 K, 24538 kPa, Fluid (supercritical or subcritical phases)	717.4
352.95 K, 25002 kPa, Fluid (supercritical or subcritical phases)	723.7
352.95 K, 31494 kPa, Fluid (supercritical or subcritical phases)	793.2
352.96 K, 982 kPa, Gas	15.1
352.96 K, 1248 kPa, Gas	19.9
352.96 K, 3495 kPa, Gas	60.3
352.96 K, 8507 kPa, Fluid (supercritical or subcritical phases)	185.5
352.96 K, 10075 kPa, Fluid (supercritical or subcritical phases)	238.1
352.96 K, 11001 kPa, Fluid (supercritical or subcritical phases)	276.4
352.96 K, 12998 kPa, Fluid (supercritical or subcritical phases)	371.8
352.96 K, 13501 kPa, Fluid (supercritical or subcritical phases)	397.6
352.96 K, 14004 kPa, Fluid (supercritical or subcritical phases)	422.3
352.96 K, 15003 kPa, Fluid (supercritical or subcritical phases)	470.1
352.96 K, 16004 kPa, Fluid (supercritical or subcritical phases)	514.7
352.96 K, 17006 kPa, Fluid (supercritical or subcritical phases)	552.6
352.96 K, 19011 kPa, Fluid (supercritical or subcritical phases)	611.7
352.96 K, 20014 kPa, Fluid (supercritical or subcritical phases)	636.9
352.96 K, 20490 kPa, Fluid (supercritical or subcritical phases)	647.4
352.96 K, 20999 kPa, Fluid (supercritical or subcritical phases)	657.9
352.96 K, 21521 kPa, Fluid (supercritical or subcritical phases)	668.5
352.96 K, 23524 kPa, Fluid (supercritical or subcritical phases)	703.1
352.96 K, 24023 kPa, Fluid (supercritical or subcritical phases)	710.4
352.96 K, 25555 kPa, Fluid (supercritical or subcritical phases)	731.2
352.96 K, 26036 kPa, Fluid (supercritical or subcritical phases)	736.4
352.96 K, 27501 kPa, Fluid (supercritical or subcritical phases)	752.6
352.96 K, 28006 kPa, Fluid (supercritical or subcritical phases)	758.3
352.96 K, 28507 kPa, Fluid (supercritical or subcritical phases)	764.2
352.96 K, 29492 kPa, Fluid (supercritical or subcritical phases)	773.9
352.96 K, 29991 kPa, Fluid (supercritical or subcritical phases)	779
352.96 K, 31058 kPa, Fluid (supercritical or subcritical phases)	789.4
352.96 K, 31993 kPa, Fluid (supercritical or subcritical phases)	797.6
352.96 K, 33014 kPa, Fluid (supercritical or subcritical phases)	805.8
352.96 K, 33519 kPa, Fluid (supercritical or subcritical phases)	809.8
352.96 K, 36996 kPa, Fluid (supercritical or subcritical phases)	835.2
352.97 K, 10506 kPa, Fluid (supercritical or subcritical phases)	255.3
352.97 K, 11505 kPa, Fluid (supercritical or subcritical phases)	298.8
352.97 K, 18007 kPa, Fluid (supercritical or subcritical phases)	583.3
352.97 K, 18500 kPa, Fluid (supercritical or subcritical phases)	597.8
352.97 K, 26597 kPa, Fluid (supercritical or subcritical phases)	742.8
352.97 K, 29001 kPa, Fluid (supercritical or subcritical phases)	768.7
352.97 K, 30512 kPa, Fluid (supercritical or subcritical phases)	784.7
352.97 K, 32552 kPa, Fluid (supercritical or subcritical phases)	802.4
352.97 K, 34055 kPa, Fluid (supercritical or subcritical phases)	814.5
352.97 K, 35014 kPa, Fluid (supercritical or subcritical phases)	821.4
352.97 K, 35510 kPa, Fluid (supercritical or subcritical phases)	824.7
352.97 K, 36496 kPa, Fluid (supercritical or subcritical phases)	831.8
352.97 K, 37499 kPa, Fluid (supercritical or subcritical phases)	838.7
352.97 K, 38520 kPa, Fluid (supercritical or subcritical phases)	845.7
352.97 K, 39009 kPa, Fluid (supercritical or subcritical phases)	848.1
352.98 K, 27043 kPa, Fluid (supercritical or subcritical phases)	747.4
352.98 K, 34563 kPa, Fluid (supercritical or subcritical phases)	818.1
352.98 K, 36013 kPa, Fluid (supercritical or subcritical phases)	828.1
352.98 K, 38023 kPa, Fluid (supercritical or subcritical phases)	842.1
352.98 K, 39300 kPa, Fluid (supercritical or subcritical phases)	850.2
352.98 K, 39330 kPa, Fluid (supercritical or subcritical phases)	850.5
